{"source": "patent US20070292351A1", "about": "“Assay for efficacy of histone deacetylase inhibitors” (Methylgene, Inc., priority 2006, published 2007)", "key": {"human colon HCT15 cells": {"system": "human colon HCT15 cells", "experiment": "Microarray gene expression analysis, HCT15 cells in vitro", "format": "cell-based", "details": "HCT-15, HCT15 in vitro", "protocol": "(§1) Human cancer cell lines were from American Type Culture Collection (Manassas, Va.) and were all cultured following the vendor's instructions.\n(§2) Biological analysis was performed using Biointerpreter software."}, "[1]": {"system": "human H460 tumors in mice", "experiment": "Microarray gene expression analysis, implanted H460 tumors in vivo", "protocol": "as §2\nHuman non-small cell lung carcinoma NSCLC-H460 cells (2 million) were injected subcutaneously in the animal flank and allowed to form solid tumors. Tumor fragments were passaged in animals for a minimum of three times before their use. Tumor fragments (about 30 mg) were implanted subcutaneously through a small surgical incision under general anesthesia to Balb/cA female nude mice (6-8 weeks old). Recipient animals were treated with either vehicle (0.1 N HCl) or MGCD0103 (2HBr salt, in 0.1 N HCl) 100 mg/kg orally. Tumors were harvested after one dose of either 6 hour or 24 hours post administration of vehicle or MGCD0103. Each experimental group contained 3 animals. Tumor tissues were deposited in RNAlater (Qiagen, Missisauga Ontario) for total RNA extraction."}, "[2]": {"system": "human leukemic MV-4-11 cells", "experiment": "Microarray gene expression analysis, MV-4-11 cells in vitro", "format": "cell-based", "details": "MV-4-11 in vitro, 1 uM, c2-c5 = sample 1, 2, 3, sample 3 dye swap", "protocol": "as §1, §2"}, "[3]": {"system": "peripheral blast cells from AML patients", "experiment": "Microarray gene expression analysis, AML patients treated with MGCD0103 in vivo", "set-up": "species or system human", "details": "for Fold of Induction of CCL4 transcription / Fold of Induction of CCL7 transcription / Fold of Induction of IFNG transcription / Fold of Induction of THBS1 transcription: AML Patient A (clinical response)", "protocol": "Whole blood from either consenting healthy volunteers or consenting patients was centrifuged at 2500 rpm for 10 minutes at ambient temperature in a Sorvall RT-7 centrifuge (Mandel Scientific Co., Guelph, Ontario). Plasma was removed and buffy coat was collected. Five volumes of Erythrocyte Lysis Buffer (EL) (Qiagen Canada Inc., Mississauga, Ontario) were added into buffy coat. Buffy coat was incubated on ice for 20 minutes before it was centrifuged at 400 g for 10 minutes at 4° C. Supernatant was removed and buffy coat was washed twice with EL buffer and re-centrifuged. Buffy coat was resuspended in RPMI media and cells were counted with trypan blue exclusion. To isolate PBMCs, buffy coat cells were centrifuged over Lymphoprep (Axis-Shield, 1114544), and any remaining erythrocytes in the sample were lysed by treatment with EL lysis buffer (Qiagen, 79217). The cell pellets are washed and then re-suspended in RPMI containing 10% FBS.\nas §2\nHuman patients with either solid tumors or leukemia/MDS diseases were enrolled in phase I studies with consensus forms. MGCD0103 were dosed into patients orally every other day (day 1, day 3, day 5 […]). Blood samples were withdrawled by using the Vacutainer sodium-heparin blood collection tubes (Becton Dickinson Laboratories, Franklin Lakes, N.J.) and shipped to the test site within 24 hours on ice-pack. Baseline samples were drawn immediately prior to the first drug dose, while the 24 hour samples were drawn at 24 hours post the first drug dose. The 48 hours samples were drawn at 48 hours post the first dose. For the 1 week samples, blood was drawn 72 hours after day 5 dose (3 accumulated doses during week 1)."}, "human RPMI8226 cells": {"system": "human RPMI8226 cells", "experiment": "IL-6 transcription in RPMI8226 cells", "format": "cell-based", "details": "24 hours (FIG. 14)", "protocol": "Quantitative PCR with SYBR Green I detection with Mastercycler® ep realplex (Eppendorf) was performed using LightCycler® 480 SYBR Green I Master (Roche Diagnostics). SYBR Green I assays were performed with 600 nM primers. All other reaction conditions were as described by the manufacturer. Amplification conditions were 5 minutes of initial denaturation at 95° C., followed by 40 cycles of each 15 seconds at 95° C., 15 seconds at 63.4° C., 20 seconds at 68° C., a melting curve from 60° C. to 95° C. was recorded. Quantification was performed using Pfaffl method, a relative quantification method in real-time PCR (Nucleic Acids Research 2001 29:2002-2007). Primers were synthesized by Invitrogen (Invitrogen-Canada, Burlington, Ont.)."}}, "note": "“And” between values parts separate entries of the source, which are not always exact repeats. Equal entries are not always repeated. Where two headings read alike, the source gives them in different places.", "data": [{"smiles": "Nc1ccccc1NC(=O)c1ccc(CNc2nccc(-c3cccnc3)n2)cc1", "note": "[MGCD0103]", "values": [{"measurement": "fold induction at 1 µM", "setting": "human colon HCT15 cells; probe A_23_P16523, read-out: Fold Induction of GDF15 transcription", "result": 4.18}, {"measurement": "fold induction at 1 µM", "setting": "human colon HCT15 cells; probe A_23_P41344, read-out: Fold Induction of EREG transcription", "result": 4.62}, {"measurement": "fold induction at 1 µM", "setting": "human colon HCT15 cells; probe A_23_P52336, read-out: Fold Induction of UNC5B transcription", "result": 5.7}, {"measurement": "fold induction at 1 µM", "setting": "human colon HCT15 cells; probe A_23_P94754, read-out: Fold Induction of TNFSF15 transcription", "result": 4.11}, {"measurement": "fold induction at 1 µM", "setting": "human colon HCT15 cells; probe A_23_P114947, read-out: Fold Induction of RGS2 transcription", "result": 2.75}, {"measurement": "fold induction at 1 µM", "setting": "human colon HCT15 cells; probe A_23_P142506, read-out: Fold Induction of GADD45B transcription", "result": 3.1}, {"measurement": "fold induction at 1 µM", "setting": "human colon HCT15 cells; probe A_23_P149019, read-out: Fold Induction of BAI2 transcription", "result": 5.13}, {"measurement": "fold induction at 1 µM", "setting": "human colon HCT15 cells; probe A_23_P151046, read-out: Fold Induction of KLRC1 transcription", "result": 9.29}, {"measurement": "fold induction at 1 µM", "setting": "human colon HCT15 cells; probe A_23_P259071, read-out: Fold Induction of AREG transcription", "result": 9.39}, {"measurement": "fold induction at 1 µM", "setting": "human colon HCT15 cells; probe A_23_P315273, read-out: Fold Induction of MT3 transcription", "result": 7.65}, {"measurement": "fold induction at 1 µM", "setting": "human colon HCT15 cells; probe A_24_P5856, read-out: Fold Induction of TNFSF9 transcription", "result": 2.96}, {"measurement": "fold induction at 1 µM", "setting": "human colon HCT15 cells; probe A_24_P217520, read-out: Fold Induction of EREG transcription", "result": 4.14}, {"measurement": "Fold induction of CDKN1C transcription", "setting": "[1]", "result": 3.1, "unit": "fold"}, {"measurement": "Fold induction of CXCL14 transcription", "setting": "[1]", "result": 3.4, "unit": "fold"}, {"measurement": "Fold induction of IER3 transcription", "setting": "[1]", "result": 3.2, "unit": "fold"}, {"measurement": "Fold induction of KRTHA2 transcription", "setting": "[1]", "result": 2.6, "unit": "fold"}, {"measurement": "Fold induction of MT3 transcription", "setting": "[1]", "result": 2.2, "unit": "fold"}, {"measurement": "Fold induction of PROM1 transcription", "setting": "[1]", "result": 3.1, "unit": "fold"}, {"measurement": "Fold induction of SNIP transcription", "setting": "[1]", "result": 2.8, "unit": "fold"}, {"measurement": "Fold induction of SOD2 transcription", "setting": "[1]", "result": 2.8, "unit": "fold"}, {"measurement": "Fold induction of TNF transcription", "setting": "[1]", "result": 2.8, "unit": "fold"}, {"measurement": "Ratio vs control, ADORA1", "setting": "[2]", "result": "3.6 and 5.4 and 5.1"}, {"measurement": "Ratio vs control, AHR", "setting": "[2]", "result": "11.3 and 10.5 and 13.1 and 10.2"}, {"measurement": "Ratio vs control, APOE", "setting": "[2]", "result": "5.9 and 6.3 and 6.0 and 6.1"}, {"measurement": "Ratio vs control, AXUD1", "setting": "[2]", "result": "2.5 and 3.9 and 3.1"}, {"measurement": "Ratio vs control, BMF", "setting": "[2]", "result": "6.0 and 7.4 and 6.7 and 7.1"}, {"measurement": "Ratio vs control, CARD10", "setting": "[2]", "result": "2.7 and 4.4 and 3.0 and 3.9"}, {"measurement": "Ratio vs control, CASP5", "setting": "[2]", "result": "2.7 and 2.5 and 3.0 and 2.6"}, {"measurement": "Ratio vs control, CASP7", "setting": "[2]", "result": "5.0 and 7.2 and 5.2 and 5.8"}, {"measurement": "Ratio vs control, CAST", "setting": "[2]", "result": "2.7 and 3.0 and 2.5 and 3.2"}, {"measurement": "Ratio vs control, CD40", "setting": "[2]", "result": "8.0 and 7.2 and 7.0 and 8.7"}, {"measurement": "Ratio vs control, CDKN1A", "setting": "[2]", "result": "4.4 and 4.0 and 4.6 and 3.9"}, {"measurement": "Ratio vs control, CLU", "setting": "[2]", "result": "20.2 and 13.8 and 14.7 and 14.4"}, {"measurement": "Ratio vs control, DNASE2", "setting": "[2]", "result": "10.5 and 11.4 and 12.1 and 12.9"}, {"measurement": "Ratio vs control, EIF2AK2", "setting": "[2]", "result": "17.9 and 21.1 and 18.1 and 26.7"}, {"measurement": "Ratio vs control, GPR65", "setting": "[2]", "result": "7.8 and 6.5 and 7.9 and 6.6"}, {"measurement": "Ratio vs control, HIPK2", "setting": "[2]", "result": "4.1 and 6.6 and 4.6 and 4.2"}, {"measurement": "Ratio vs control, IL1B", "setting": "[2]", "result": "9.6 and 11.2 and 8.5 and 11.4"}, {"measurement": "Ratio vs control, IL3RA", "setting": "[2]", "result": "4.4 and 4.3 and 5.1 and 3.3"}, {"measurement": "Ratio vs control, IL18", "setting": "[2]", "result": "4.5 and 7.9 and 6.5 and 5.5"}, {"measurement": "Ratio vs control, LY86", "setting": "[2]", "result": "4.5 and 3.6 and 3.8 and 4.3"}, {"measurement": "Ratio vs control, MAP3K14", "setting": "[2]", "result": "2.6 and 2.8"}, {"measurement": "Ratio vs control, MX1", "setting": "[2]", "result": "35.8 and 27.5 and 38.0 and 23.2"}, {"measurement": "Ratio vs control, NALP1", "setting": "[2]", "result": "7.3 and 7.4 and 6.4"}, {"measurement": "Ratio vs control, NGFR", "setting": "[2]", "result": "3.0 and 2.7 and 2.6 and 2.8"}, {"measurement": "Ratio vs control, PDE1B", "setting": "[2]", "result": "4.3 and 3.4 and 4.8 and 3.6"}, {"measurement": "Ratio vs control, PPP3CA", "setting": "[2]", "result": "2.7 and 3.0 and 3.3 and 2.6"}, {"measurement": "Ratio vs control, PRKAR2B", "setting": "[2]", "result": "10.8 and 7.2 and 11.1 and 7.6"}, {"measurement": "Ratio vs control, TNFRSF21", "setting": "[2]", "result": "4.1 and 6.4 and 4.7 and 5.2"}, {"measurement": "Ratio vs control, TNFRSF25", "setting": "[2]", "result": "4.2 and 4.0 and 4.4 and 3.6"}, {"measurement": "Ratio vs control, TNFSF10", "setting": "[2]", "result": "7.4 and 7.2 and 10.1 and 5.6"}, {"measurement": "Ratio vs control, TNFSF14", "setting": "[2]", "result": "5.1 and 3.7 and 3.9 and 4.6"}, {"measurement": "Ratio vs control, BNIP3L", "setting": "[2]; gene listed twice (r23, r58)", "result": "4.9 and 3.2 and 3.4 and 2.6 and 3.5 and 2.9"}, {"measurement": "Ratio vs control, CASP4", "setting": "[2]; gene listed twice (r64, r66)", "result": "2.7 and 2.8 and 2.6 and 2.9 and 3.0 and 2.5 and 3.1"}, {"measurement": "Fold of Induction of CCL4 transcription", "setting": "[3]; 24 hr", "result": 1.4, "unit": "fold"}, {"measurement": "Fold of Induction of CCL7 transcription", "setting": "[3]; 24 hr", "result": 2.3, "unit": "fold"}, {"measurement": "Fold of Induction of IFNG transcription", "setting": "[3]; 24 hr", "result": 1.4, "unit": "fold"}, {"measurement": "Fold of Induction of THBS1 transcription", "setting": "[3]; 24 hr", "result": 1.4, "unit": "fold"}, {"measurement": "Fold of Induction of CCL4 transcription", "setting": "[3]; day 8", "result": 12.2, "unit": "fold"}, {"measurement": "Fold of Induction of CCL7 transcription", "setting": "[3]; day 8", "result": 7.3, "unit": "fold"}, {"measurement": "Fold of Induction of IFNG transcription", "setting": "[3]; day 8", "result": 2.5, "unit": "fold"}, {"measurement": "Fold of Induction of THBS1 transcription", "setting": "[3]; day 8", "result": 2.8, "unit": "fold"}, {"measurement": "Induction of transcription of a subset of proapoptotic proteins", "setting": "[3]; peripheral blast cells, D8 vs 0 h, AML Patient A (response), in contrast to Patients B, C, D (FIG. 11)", "result": "Induction"}, {"measurement": "induction of transcription of the Table 5 genes (CCL7, CCL4, IFNG, THBS1)", "setting": "[3]; three other AML patients without response", "result": "<= 1 fold"}, {"measurement": "dose-dependent induction of IL-6 transcription", "setting": "human RPMI8226 cells", "result": "dose-dependent induction"}]}]}
